The source of these data is patent publication US20260184687A1, “DIHYDROINDENE DERIVATIVES AS MALT1 INHIBITORS” (C4X Discovery Limited, priority 2022, published 2026).

Where a name gives a salt, the structure may show the parent alone.

Experiment [1] has as its system IL-2 release from stimulated Jurkat cells. Kind of experiment: Human IL-2 Release Phenotypic Assay (Assay 3). The class given is cell-based. The conditions noted are these: Jurkat cells (clone E6-1), 200 ng/mL PMA + 300 ng/mL ionomycin, IL-2 by ELISA. The essentials:
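Jurkat E6-1 cells in RPMI1640/10% FBS were seeded at 50 000 cells/well and incubated overnight at 37° C. Half-log compound dilutions (0.5% final DMSO) were added for 30 min, then cells were stimulated with 200 ng/mL PMA + 300 ng/mL ionomycin for 48 h. IC50 came from a 4-parameter non-linear regression fit.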
(In an ELISA, binding on a coated surface is turned into a signal by an enzyme label.)

Experiment [2] has as its target MALT1-GS-Ub (6-His-hMALT-1 residues 339-715 fused to ubiquitin) (Homo sapiens, UniProt Q9UDY8). The experiment in a line: biochemical.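 Also: in vitro MALT1 protease assay: enzyme preincubated with compound 30 min at room temperature, then cleavage of fluorogenic Ac-LVSR-AMC substrate (100 µM) followed by fluorescence every 15 min.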
A further experiment concerns the target T1, FL hMALT1 enzyme (Homo sapiens, UniProt Q9UDY8).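 Also: Cell-free protease assay: enzyme preincubated with compound 30 min at room temperature, then cleavage of fluorogenic Ac-LVSR-AMC substrate (100 µM) tracked by fluorescence (ex 360/em 460 nm).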
T1 sequence (Q9UDY8 1-824): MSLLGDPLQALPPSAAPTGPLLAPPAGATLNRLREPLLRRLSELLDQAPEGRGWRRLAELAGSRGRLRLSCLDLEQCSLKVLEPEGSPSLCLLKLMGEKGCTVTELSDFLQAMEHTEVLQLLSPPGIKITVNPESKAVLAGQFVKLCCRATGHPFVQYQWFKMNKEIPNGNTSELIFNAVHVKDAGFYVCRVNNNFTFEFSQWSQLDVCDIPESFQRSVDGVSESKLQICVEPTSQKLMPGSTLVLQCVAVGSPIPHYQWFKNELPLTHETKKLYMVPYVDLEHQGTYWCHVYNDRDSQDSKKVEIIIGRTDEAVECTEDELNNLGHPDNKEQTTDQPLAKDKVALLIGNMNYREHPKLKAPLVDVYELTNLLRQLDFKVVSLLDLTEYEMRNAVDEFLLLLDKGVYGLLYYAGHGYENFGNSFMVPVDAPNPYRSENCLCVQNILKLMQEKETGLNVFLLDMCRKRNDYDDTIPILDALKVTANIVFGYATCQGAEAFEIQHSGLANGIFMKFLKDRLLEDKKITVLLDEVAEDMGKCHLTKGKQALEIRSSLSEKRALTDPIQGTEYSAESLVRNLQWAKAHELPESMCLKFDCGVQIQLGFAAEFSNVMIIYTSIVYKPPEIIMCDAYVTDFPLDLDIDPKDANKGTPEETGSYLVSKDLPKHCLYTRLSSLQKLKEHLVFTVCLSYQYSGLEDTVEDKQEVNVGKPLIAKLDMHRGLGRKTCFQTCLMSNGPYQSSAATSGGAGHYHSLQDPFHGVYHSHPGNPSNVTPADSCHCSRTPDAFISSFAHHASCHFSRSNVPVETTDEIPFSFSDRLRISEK
The experiment in a line: biochemical.

A word on the IC50: it is the concentration that gives 50% inhibition.

Chain of MALT1-GS-Ub (6-His-hMALT-1 residues 339-715 fused to ubiquitin) (Q9UDY8 with tags, fused parts or gaps limits assumed): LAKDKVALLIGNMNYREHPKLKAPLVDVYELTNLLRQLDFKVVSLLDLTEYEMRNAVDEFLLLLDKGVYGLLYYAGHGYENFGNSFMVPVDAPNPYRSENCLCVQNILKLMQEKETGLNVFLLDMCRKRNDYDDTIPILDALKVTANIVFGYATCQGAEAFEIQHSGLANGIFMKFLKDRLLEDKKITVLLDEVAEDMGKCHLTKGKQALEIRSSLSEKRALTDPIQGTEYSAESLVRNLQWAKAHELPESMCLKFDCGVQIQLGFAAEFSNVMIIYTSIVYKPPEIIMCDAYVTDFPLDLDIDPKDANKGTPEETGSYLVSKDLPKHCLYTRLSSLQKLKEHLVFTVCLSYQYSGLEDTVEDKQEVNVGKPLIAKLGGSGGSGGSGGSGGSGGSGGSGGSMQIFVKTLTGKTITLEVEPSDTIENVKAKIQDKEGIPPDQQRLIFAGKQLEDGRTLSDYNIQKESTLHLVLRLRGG

Take `CNC(=O)N1CC(C(=O)N(C)[C@@H](c2ccc(NC3Cc4ccccc4C3(C)C)cc2)C(F)(F)F)C1` (single isomer, unassigned) [Example 73]: the IC50 in experiment [1] (48 hours) came to 370 nM; in experiment [2], 420 nM; against FL hMALT1 enzyme it was 7 nM.
`COCC(=O)N(C)[C@@H](c1ccc(NC2Cc3ccccc3C2(C)C)cc1)C(F)(F)F` (single isomer, unassigned) [Example 28]: the figures for the IC50 (in experiment [1] (48 hours); in experiment [2]; against FL hMALT1 enzyme) were 2610 nM, 290 nM and 200 nM, respectively.
In the same order, the values of `CN(C(=O)C1CCOCC1)[C@@H](c1ccc(NC2Cc3ccccc3C2(C)C)cc1)C(F)(F)F` (single isomer, unassigned) [Example 19] are 110 nM, 170 nM and 30 nM.
On to `COC1c2ccccc2CC1Nc1ccc([C@H](N(C)C(=O)C2CCS(=O)(=O)CC2)C(F)(F)F)cc1` (single isomer, unassigned) [Example 10], for which the IC50 was found to be 1550 nM in experiment [1] (Homo sapiens, Jurkat, 48 h); 540 nM in experiment [2]; 120 nM on FL hMALT1 enzyme.
For the compound `CN(C(=O)CCO)[C@@H](c1ccc(NC2Cc3ccccc3C2(C)C)cc1)C(F)(F)F` (single isomer, unassigned) [Example 35], the values for the 50% inhibitory concentration (IC50) (in experiment [1] (48 hours); in experiment [2]; at FL hMALT1 enzyme) were 3760 nM, 290 nM and 27 nM, respectively.
Consider `CN(C(=O)CN1CC(=O)NC1=O)[C@@H](c1ccc(NC2Cc3ccccc3C2(C)C)cc1)C(F)(F)F` (single isomer, unassigned) [Example 66], for which the IC50 was found to be 590 nM in experiment [1] (48 hours), 220 nM in experiment [2] and 20 nM on FL hMALT1 enzyme.
In the same order, the values of `CN(C(=O)N1CCC(O)CC1)[C@@H](c1ccc(NC2Cc3ccccc3C2(C)C)cc1)C(F)(F)F` (single isomer, unassigned) [Example 23] are 1080 nM, 390 nM and 330 nM.
In the same order, the values of `CN(C(=O)N1CCS(=O)(=O)CC1)[C@@H](c1ccc(NC2Cc3ccccc3C2(C)C)cc1)C(F)(F)F` (single isomer, unassigned) [Example 14] are 320 nM, 220 nM and 110 nM.
Consider `CN(C(=O)C1CCS(=O)(=O)CC1)[C@@H](c1ccc(NC2Cc3cc(Cl)ccc3C2(C)C)cc1)C(F)(F)F` (single isomer, unassigned) [Example 152], for which the results for the 50% inhibitory concentration (IC50) (in experiment [1] (48 hours); in experiment [2]; against FL hMALT1 enzyme) were 360 nM, 260 nM and 420 nM, respectively.
Turning to `CC1(C)c2ccccc2CC1Nc1ccc([C@H](NC(=O)C2CCS(=O)(=O)CC2)C(F)(F)F)cc1` (single isomer, unassigned) [Example 81], the IC50 in experiment [1] (Homo sapiens, Jurkat, 48 h) turned out to be 3860 nM; in experiment [2] it was 1440 nM; at FL hMALT1 enzyme it was 800 nM.
For `CN(C(=O)c1cc[nH]c(=O)c1)[C@@H](c1ccc(NC2Cc3ccccc3C2(C)C)cc1)C(F)(F)F` (single isomer, unassigned) [Example 21], the IC50 is 260 nM in experiment [1] (48 hours), 200 nM in experiment [2] and 62 nM against FL hMALT1 enzyme.
Regarding `CN(C(=O)CO)[C@@H](c1ccc(NC2Cc3ccccc3C2(C)C)cc1)C(F)(F)F` (single isomer, unassigned) [Example 31], the IC50 in experiment [1] (Homo sapiens, Jurkat, 48 h) was determined as 1190 nM; in experiment [2] it was 130 nM; at FL hMALT1 enzyme, 50 nM.
Regarding `CN(C(=O)C1CCS(=O)(=O)CC1)[C@@H](c1ccc(NC2Cc3cc(Cl)ccc3C2(C)C)cc1)C(F)(F)F` (single isomer, unassigned) [Example 153], the values for the IC50 (in experiment [1] (48 hours); in experiment [2]; against FL hMALT1 enzyme) were 120 nM, 190 nM and 67 nM, respectively.
With `CN1CC(C(=O)N(C)C(c2ccc(NC3Cc4ccccc4C3(C)C)nc2)C(F)(F)F)C1` (single isomer, unassigned) [Example 95, N-(1-(6-((1,1-Dimethyl-2,3-dihydro-1H-inden-2-yl)amino)pyridin-3-yl)-2,2,2-trifluoroethyl)-N,1-dimethylazetidine-3-carboxamide], the 50% inhibitory concentration (IC50) stood at 1300 nM in experiment [1] (48 hours), 580 nM in experiment [2] and 640 nM against FL hMALT1 enzyme.
For `CN([C@@H](c1ccc(NC2Cc3ccccc3C2(C)C)cc1)C(F)(F)F)S(=O)(=O)C1CC1` (single isomer, unassigned) [Example 79], the 50% inhibitory concentration (IC50) was determined as 4310 nM in experiment [1] (Homo sapiens, Jurkat, 48 h); 610 nM in experiment [2]; 730 nM at FL hMALT1 enzyme.
As to `CN(C(=O)C1CN(S(C)(=O)=O)C1)[C@@H](c1ccc(NC2Cc3ccccc3C2(C)C)cc1)C(F)(F)F` (single isomer, unassigned) [Example 68], the IC50 in experiment [1] (48 hours) was 120 nM; in experiment [2], 190 nM; on FL hMALT1 enzyme, 15 nM.
In the same order, the values of `COCC(=O)N(C)[C@@H](c1ccc(NC2Cc3ccccc3C2(C)C)cc1)C(F)(F)F` (single isomer, unassigned) [Example 29] are 690 nM, 160 nM and 14 nM.
Take `CN(C(=O)c1cc[nH]c(=O)c1)[C@@H](c1ccc(NC2Cc3ccccc3C2(C)C)cc1)C(F)(F)F` (single isomer, unassigned) [Example 20]: the half-maximal inhibitory concentration (IC50) in experiment [1] (Homo sapiens, Jurkat, 48 h) came out at 510 nM; in experiment [2] it was 210 nM; on FL hMALT1 enzyme, 240 nM.
In the case of `COCCC(=O)N(C)[C@@H](c1ccc(NC2Cc3ccccc3C2(C)C)cc1)C(F)(F)F` (single isomer, unassigned) [Example 33], the half-inhibitory concentration (IC50) came to 2480 nM in experiment [1] (48 hours), 360 nM in experiment [2] and 260 nM on FL hMALT1 enzyme.
For `CN(C(=O)C1CNC1)C(c1ccc(NC2Cc3ccccc3C2(C)C)nc1)C(F)(F)F` (single isomer, unassigned) [Example 88, N-(1-(6-((1,1-Dimethyl-2,3-dihydro-1H-inden-2-yl)amino)pyridin-3-yl)-2,2,2-trifluoroethyl)-N-methylazetidine-3-carboxamide], in that order: 1710 nM, 650 nM and 370 nM.
Consider `CN(C(=O)N1CCOCC1)[C@@H](c1ccc(N[C@@H]2Cc3ccccc3C2(C)C)cc1)C(F)(F)F` (single isomer, unassigned) [Example 13], for which the half-inhibitory concentration (IC50) in experiment [1] (Homo sapiens, Jurkat, 48 h) is 1930 nM; in experiment [2], 400 nM; on FL hMALT1 enzyme it was 400 nM.
As for `CN(C(=O)C1CCS(=O)(=O)CC1)[C@@H](c1ccc(NC2Cc3ccc(Cl)cc3C2(C)C)cc1)C(F)(F)F` (single isomer, unassigned) [Example 150], the concentration for half-maximal inhibition (IC50) worked out at 100 nM in experiment [1] (Homo sapiens, Jurkat, 48 h); 150 nM in experiment [2]; 66 nM at FL hMALT1 enzyme.
Take `CN(C(=O)c1cc[nH]c(=O)c1)C(c1ccc(NC2Cc3ccccc3C2(C)C)cn1)C(F)(F)F` (single isomer, unassigned) [Example 98, N-(1-(5-((1,1-Dimethyl-2,3-dihydro-1H-inden-2-yl)amino)pyridin-2-yl)-2,2,2-trifluoroethyl)-N-methyl-2-oxo-1,2-dihydropyridine-4-carboxamide]: the results for the IC50 (in experiment [1] (48 hours); in experiment [2]; at FL hMALT1 enzyme) were 880 nM, 210 nM and 590 nM, respectively.
Regarding `CN(C(=O)N1CCC(O)CC1)[C@@H](c1ccc(NC2Cc3ccccc3C2(C)C)cc1)C(F)(F)F` (single isomer, unassigned) [Example 22], the IC50 in experiment [1] (Homo sapiens, Jurkat, 48 h) worked out at 1730 nM; in experiment [2] it was 290 nM; against FL hMALT1 enzyme, 450 nM.
Turning to `C[C@H](c1ccc(NC2Cc3ccccc3C2(C)C)cc1)N(C)C(=O)C1CCS(=O)(=O)CC1` (single isomer, unassigned) [Example 63], the IC50 turned out to be 2550 nM in experiment [1] (Homo sapiens, Jurkat, 48 h); 390 nM in experiment [2]; 200 nM against FL hMALT1 enzyme.
In the same order, the values of `CN(C(=O)OC1CNC1)[C@@H](c1ccc(NC2Cc3ccccc3C2(C)C)cc1)C(F)(F)F` (stereo partly drawn) [Example 60, Azetidin-3-yl ((1S)-1-(4-((1,1-dimethyl-2,3-dihydro-1H-inden-2-ylamino)phenyl)-2,2,2-trifluoroethyl)(methyl)carbamate Hydrochloride] are 1100 nM, 210 nM and 53 nM.
For the compound `CC(=O)N1CC(F)(C(=O)N(C)[C@@H](c2ccc(NC3Cc4ccccc4C3(C)C)cc2)C(F)(F)F)C1` (single isomer, unassigned) [Example 43], the half-maximal inhibitory concentration (IC50) in experiment [1] (48 hours) amounted to 4040 nM; in experiment [2] it was 150 nM; against FL hMALT1 enzyme, 62 nM.
As for `CN(C(=O)CCN1CCCC1=O)[C@@H](c1ccc(NC2Cc3ccccc3C2(C)C)cc1)C(F)(F)F` (single isomer, unassigned) [Example 48], the half-maximal inhibitory concentration (IC50) turned out to be 1160 nM in experiment [1] (48 hours), 140 nM in experiment [2] and 17 nM at FL hMALT1 enzyme.
